This test has as its system KOD dash DNA Polymerase. The test can be described thus: PCR with KOD dash DNA Polymerase in the presence of acidic substances. Particulars: 12 kb fragment; 10 pg λDNA, primers λ1/λ9, 25 cycles 98°C 5 s–68°C 3 min; amount added 0.5 μg. Format: biochemical. Here is the method:
(2) The effects of the acidic substances were studied for KOD dash DNA Polymerase (manufactured by TOYOBO CO., LTD.), comprising a combination of DNA polymerase having 3′→5′ exonuclease activity, and DNA polymerase having no such activity. A reaction mixture comprising λDNA as a template, primers λ1 and λ9 as a primer pair was prepared, and PCR was carried out. In the following example, PCR was carried out in Fast mode by using TaKaRa PCR Thermal Cycler Personal (manufactured by Takara Shuzo Co., Ltd.). The composition of the reaction mixture is as follows. Composition of Reaction Mixture: exclusive buffer attached for KOD dash DNA Polymerase, 0.2 mM each of dATP, dCTP, dGTP and dTTP, 10 pg of λDNA, 2.5 U of KOD dash DNA Polymerase, and 10 pmol each of primers λ1 and λ9 (a final volume being 50 μl). Further, 1 ng of the sulfated-fucose-containing polysaccharide-F or 0.5 μg of sodium alginate was respectively added to the above reaction mixture.
The reaction was carried out in 25 cycles, wherein one cycle of reaction comprises a process consisting of 98° C., 5 seconds—68° C., 3 minutes. After the termination of the reaction, 5 μl of the resulting reaction mixture was subjected to electrophoresis on 1% agarose gel containing ethidium bromide in an amount of 0.00005%, whereby an amplified fragment was confirmed.

The source of these data is patent US8367328B2, “Method for synthesizing DNA” (Takara Bio Inc., priority 1998, dated 2013).

On to sodium alginate, for which the “Amplification Results” value is on record as “++ (Intensive amplification being observed)”.
